Laboratory results from patent publication US10414763B2 (CANCER RESEARCH TECHNOLOGY LIMITED, priority 2014, dated 2019).

Target: T1, full-length human PKCι (Homo sapiens, UniProt P41743)
T1 construct: Recombinant, full-length human PKCι expressed in Sf21 insect cells is also commercially available; purchased EMD Millipore; host or cells: Sf21 insect cells (baculovirus)
T1 sequence (P41743 1-596): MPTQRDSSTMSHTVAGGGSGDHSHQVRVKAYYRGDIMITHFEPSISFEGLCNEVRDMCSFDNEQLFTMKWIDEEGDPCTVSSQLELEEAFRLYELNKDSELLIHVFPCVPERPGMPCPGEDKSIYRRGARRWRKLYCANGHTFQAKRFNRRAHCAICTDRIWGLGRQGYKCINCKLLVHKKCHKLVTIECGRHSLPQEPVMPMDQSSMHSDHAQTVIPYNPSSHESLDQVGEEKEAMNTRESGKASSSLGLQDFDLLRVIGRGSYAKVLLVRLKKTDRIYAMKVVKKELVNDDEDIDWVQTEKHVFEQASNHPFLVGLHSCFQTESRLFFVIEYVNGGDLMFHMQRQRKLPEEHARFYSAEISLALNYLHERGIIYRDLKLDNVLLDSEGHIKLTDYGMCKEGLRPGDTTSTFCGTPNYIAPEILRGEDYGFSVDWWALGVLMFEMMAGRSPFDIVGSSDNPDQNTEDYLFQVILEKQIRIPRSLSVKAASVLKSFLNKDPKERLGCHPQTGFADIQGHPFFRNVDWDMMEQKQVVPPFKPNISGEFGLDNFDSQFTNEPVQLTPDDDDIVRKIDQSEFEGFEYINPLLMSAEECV
Assay: PKCι IC50 IMAP fluorescence polarisation assay, full-length enzyme, 150 μM ATP
Format: biochemical
Conditions: read-out: IC50 in IMAP assay against full length PKCi at 150 μM ATP
Procedure, shortened: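 IMAP fluorescence polarisation kinase assay: 15 pM baculovirus-expressed human PKCiota with 100 nM FAM-pseudosubstrate peptide and 150 μM ATP, 1 h at 25 °C. IMAP detection reagent then 2 h at 25 °C before FP measurement. Inhibition referenced to no-compound and no-enzyme controls for IC50 fitting.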

Compound | IC50 [nM]
C[C@H]1CNCC[C@@H]1Nc1nc(-c2ccnc(Nc3ncccc3F)c2)nc2cncc(C3CCC3)c12 (single isomer, unassigned) [Example 342, 5-Cyclobutyl-2-[2-[(3-fluoro-2-pyridyl)amino]-4-pyridyl]-N-[(3S,4S)-3-methyl-4-piperidyl]pyrido[3,4-d]pyrimidin-4-amine or enantiomer] | < 100
C[C@H]1C[C@@H](Nc2nc(-c3ccnc(Nc4nc(F)ccc4F)c3)nc3cncc(C4CCC4)c23)CCN1 (racemic) [Example 386, {5-Cyclobutyl-2-[2-(3,6-difluoro-pyridin-2-ylamino)-pyridin-4-yl]-pyrido[3,4-d]pyrimidin-4-yl}-(rac-(2S,4S)-2-methyl-piperidin-4-yl)-amine] | < 100
CC1(C)CC(Nc2nc(-c3ccnc(Nc4nc(F)c(F)cc4F)c3)nc3cncc(C4CCC4)c23)CCN1 (stereo not drawn) [Example 137, {5-Cyclobutyl-2-[2-(3,5,6-trifluoro-pyridin-2-ylamino)-pyridin-4-yl]-pyrido[3,4-d]pyrimidin-4-yl}-(2,2-dimethyl-piperidin-4-yl)-amine] | < 100
O[C@H]1CNCC[C@H]1Nc1nc(-c2ccnc(Nc3ncc(F)cc3F)c2)nc2cncc(C3CC3)c12 (racemic) [Example 306, rac-(3S,4R)-4-{5-Cyclopropyl-2-[2-(3,5-difluoro-pyridin-2-ylamino)-pyridin-4-yl]-pyrido[3,4-d]pyrimidin-4-ylamino}-piperidin-3-ol] | 100 to 1000
O[C@@H]1CNCC[C@H]1Nc1nc(-c2ccnc(Nc3ncccc3F)c2)nc2cncc(C3CC3)c12 (racemic) [Example 308, rac-(3R,4R)-4-{5-Cyclopropyl-2-[2-(3-fluoro-pyridin-2-ylamino)-pyridin-4-yl]-pyrido[3,4-d]pyrimidin-4-ylamino}-piperidin-3-ol] | 100 to 1000
CC1(C)CNCC[C@@H]1Nc1nc(-c2ccnc3[nH]c(-c4cccnc4)cc23)nc2cncc(C3CC3)c12 [Example 395, [5-Cyclopropyl-2-(2-pyridin-3-yl-1H-pyrrolo[2,3-b]pyridin-4-yl)-pyrido[3,4-d]pyrimidin-4-yl]-((S)-3,3-dimethyl-piperidin-4-yl)-amine] | < 100
CN(c1nc(-c2ccnc3[nH]c4ccccc4c23)nc2cncc(C3CCC3)c12)C1CC(N)C1 (stereo not drawn) [Example 75, N-[5-Cyclobutyl-2-(9H-pyrido[2,3-b]indol-4-yl)-pyrido[3,4-d]pyrimidin-4-yl]-N-methyl-cyclobutane-1,3-diamine] | < 100
Cc1cc2c(-c3nc(N[C@@H]4CCNCC4(C)C)c4c(C5CC5)cncc4n3)ccnc2[nH]1 [Example 154, [5-Cyclopropyl-2-(2-methyl-1H-pyrrolo[2,3-b]pyridin-4-yl)-pyrido[3,4-d]pyrimidin-4-yl]-((R)-3,3-dimethyl-piperidin-4-yl)-amine] | < 100
CC1(C)CNCC[C@@H]1Nc1nc(-c2ccnc(Nc3cc4ccccn4n3)c2)nc2cncc(C3CC3)c12 [Example 328, 5-Cyclopropyl-N-[(4S)-3,3-dimethyl-4-piperidyl]-2-[2-(pyrazolo[1,5-a]pyridin-2-ylamino)-4-pyridyl]pyrido[3,4-d]pyrimidin-4-amine] | < 100
Clc1ccccc1-c1cc2c(-c3nc(N4CCC5NCCC54)c4c(C5CC5)cncc4n3)ccnc2[nH]1 (stereo not drawn) [Example 128, 2-[2-(2-Chloro-phenyl)-1H-pyrrolo[2,3-b]pyridin-4-yl]-5-cyclopropyl-4-(hexahydro-pyrrolo[3,2-b]pyrrol-1-yl)-pyrido[3,4-d]pyrimidine] | < 100
Cc1cc(C#N)cnc1Nc1cc(-c2nc(N[C@H]3CCNCC3(C)C)c3c(C4CCC4)cncc3n2)ccn1 [Example 323, 6-{4-[5-Cyclobutyl-4-((S)-3,3-dimethyl-pipcridin-4-ylamino)-pyrido[3,4-d]pyrimidin-2-yl]-pyridin-2-ylamino}-5-methyl-nicotinonitrile] | < 100
CN(c1nc(-c2ccnc3[nH]c(Sc4ccccc4)cc23)nc2cncc(C3CC3)c12)C1CCNCC1 [Example 15, [5-Cyclopropyl-2-(2-phenylsulfanyl-1H-pyrrolo[2,3-b]pyridin-4-yl)-pyrido[3,4-d]pyrimidin-4-yl]-methyl-piperidin-4-yl amine] | < 100
c1cc(-c2nc(N3CCNCC3)c3c(C4CC4)cncc3n2)cc(Nc2nc(C3CC3)cs2)n1 [Example 37, [4-(5-Cyclopropyl-4 piperazin-1-yl-pyrido[3,4-d]pyrimidin-2-yl)-pyridin-2-yl]-(4-cyclopropyl-thiazol-2-yl)-amine] | < 100
Cc1cn2c(n1)[nH]c1nccc(-c3nc(N4CCNCC4)c4c(C5CCC5)cncc4n3)c12 [Example 3, 4-(5-Cyclobutyl-4-piperazin-1-yl-pyrido[3,4-d]pyrimidin-2-yl)-2-methyl-8H-1,3a,7,8-tetraaza-cyclopent[a]indene] | 100 to 1000

More lines, now with the values ahead:

IC50 [nM] | Compound
< 100 | OC1CNCCC(Nc2nc(-c3ccnc4[nH]c5ccccc5c34)nc3cncc(C4CCC4)c23)C1 (stereo not drawn) [Example 122, 5-[5-Cyclobutyl-2-(9H-pyrido[2,3-b]indol-4-yl)-pyrido[3,4-d]pyrimidin-4-ylamino]-azepan-3-ol]
< 100 | Cc1cc2c(-c3nc(NC4CCNCC4(C)C)c4c(C5CC5)cncc4n3)ccnc2[nH]1 (stereo not drawn) [Example 100, [5-Cyclopropyl-2-(2-methyl-1H-pyrrolo[2,3-b]pyridin-4-yl)-pyrido[3,4-d]pyrimidin-4-yl]-(3,3-dimethyl-piperidin-4-yl)-amine]
< 100 | C[C@@H]1CNCC[C@H]1Nc1nc(-c2ccnc3[nH]c4ccccc4c23)nc2cncc(C(F)(F)F)c12 (racemic) [Example 352, (rac-(3R,4R)-3-Methyl-piperidin-4-yl)-[2-(9H-pyrido[2,3-b]indol-4-yl)-5-trifluoromethyl-pyrido[3,4-d]pyrimidin-4-yl]-amine]
< 100 | N[C@H]1C[C@H](Nc2nc(-c3ccnc4[nH]c5ccccc5c34)nc3cncc(C4CCC4)c23)C1 [Example 11, trans-N-[5-Cyclobutyl-2-(9H-pyrido[2,3-b]indol-4-yl)-pyrido[3,4-d]pyrimidin-4-yl]-cyclobutane-1,3-diamine]
< 100 | CC1(C)CNCC[C@@H]1Nc1nc(-c2ccnc(Nc3ccccn3)c2)nc2cncc(C3CCC3)c12 [Example 388, {5-Cyclobutyl-2-[2-(pyridin-2-ylamino)-pyridin-4-yl]-pyrido[3,4-d]pyrimidin-4-yl}-((S)-3,3-dimethyl-piperidin-4-yl)-amine]
1000 to 10000 | CC1(C)CNCC[C@@H]1Nc1nc(-c2cccc(Nc3cnccn3)c2)nc2cncc(C3CCC3)c12 [Example 324, 5-Cyclobutyl-N-[(4S)-3,3-dimethyl-4-piperidyl]-2-[3-(pyrazin-2-ylamino)phenyl]pyrido[3,4-d]pyrimidin-4-amine]
< 100 | CC1(C)CNCC[C@@H]1Nc1nc(-c2ccnc(Nc3c(F)cccc3F)c2)nc2cncc(C3CC3)c12 [Example 254, {5-Cyclopropyl-2-[2-(2,6-difluoro-phenylamino)-pyridin-4-yl]-pyrido[3,4-d]pyrimidin-4-yl}-((S)-3,3-dimethyl-piperidin-4-yl)-amine]
100 to 1000 | N[C@H]1C[C@H](Nc2nc(-c3ccnc4[nH]c5ccccc5c34)nc3cncc(C4CCC4)c23)C[C@H]1F (racemic) [Example 207, (±)-(1S,3S,4S)-N*l*-[5-Cyclobutyl-2-(9H-pyrido[2,3-b]indol-4-yl)-pyrido[3,4-d]pyrimidin-4-yl]-4-fluoro-cyclopentane-1,3-diamine]
< 100 | Cc1cc2c(-c3nc(N4CCCC5NCCCC54)c4c(C5CC5)cncc4n3)ccnc2[nH]1 (stereo not drawn) [Example 94, 5-Cyclopropyl-2-(2-methyl-1H-pyrrolo[2,3-b]pyridin-4-yl)-4-(octahydro-[1,5]naphthyridin-1-yl)-pyrido[3,4-d]pyrimidine]
< 100 | Fc1ccc(F)c(Nc2cc(-c3nc(NC4CCCNCC4)c4c(C5CCC5)cncc4n3)ccn2)n1 (stereo not drawn) [Example 160, Azepan-4-yl-{5-cyclobutyl-2-[2-(3,6-difluoro-pyridin-2-ylamino)-pyridin-4-yl]-pyrido[3,4-d]pyrimidin-4-yl}-amine]
< 100 | O[C@H]1CNCC[C@H]1Nc1nc(-c2ccnc(Nc3nc(F)ccc3F)c2)nc2cncc(C3CCC3)c12 (racemic) [Example 381, rac-(3S,4R)-4-{5-Cyclobutyl-2-[2-(3,6-difluoro-pyridin-2-ylamino)-pyridin-4-yl]-pyrido[3,4-d]pyrimidin-4-ylamino}-piperidin-3-ol]
< 100 | CN(c1nc(-c2ccnc3[nH]c4ccccc4c23)nc2cncc(C3CCC3)c12)C1CCC(N)C1 (stereo not drawn) [Example 78, N-[5-Cyclobutyl-2-(9H-pyrido[2,3-b]indol-4-yl)-pyrido[3,4-d]pyrimidin-4-yl]-N-methyl-cyclopentane-1,3-diamine]
< 100 | Fc1cccnc1-c1cc2c(-c3nc(N4CC[C@H]5NCC[C@H]54)c4c(C5CC5)cncc4n3)ccnc2[nH]1 (racemic) [Example 56, (±)-5-Cyclopropyl-2-[2-(3-fluoro-pyridin-2-yl)-1H-pyrrolo[2,3-b]pyridin-4-yl]-4-(3,6- cis)-hexahydro-pyrrolo[3,2-b]pyrrol-1-yl-pyrido[3,4-d]pyrimidine]
